{"source": "patent US10422007B2", "about": "“Markers associated with Wnt inhibitors” (Novartis AG, priority 2013, dated 2019)", "key": {"[1]": {"tested_on": "cells", "test": "Cytotoxicity in cells", "type": "cell-based", "conditions": "up to 20 μM", "description": "(§1) The secreted Wnts subsequently function on Wnt receiving cells that leads to phosphorylation of the Wnt […] LRP6. […] PORCN was reported to affect pan-Wnt post-translational palmitoylation^17-18."}, "[2]": {"tested_on": "HN30 tumors", "test": "Pharmacodynamic markers in HN30 mouse xenograft tumors", "type": "in vivo", "method": "AXIN2 mRNA and pLRP6 levels (determined as in Example 3) were utilized as pharmacodynamic markers to link the observed anti-tumor activity in the HN30 mouse xenograft model. […] A time delay was observed between the peak drug concentration (at 1 hour) and the maximum AXIN2 mRNA inhibition (at 10 hours). […] This pharmacokinetic (PK), PD, and efficacy relationship explains that the sustained pathway inhibition is not required for inducing tumor regression in this HN30 xenograft model, which may provide a key differentiation factor between tumors and normal tissues to achieve a therapeutic window.\nFor this a two-Step TaqMan RT-PCR analysis was performed on a PTC-200 peltier thermal cycler (MJ Research) and an ABI PRISM 7900HT Sequence Detection system (Applied Biosystems). Firstly, cDNA was synthesized using a High-Capacity cDNA Archive kit (Applied Biosystems) according to the manufacturer's instructions. Briefly, the RT reaction was prepared by mixing non-enzymatic, enzymatic components of the High-Capacity cDNA Archive kit and isolated RNA samples, followed with tandem incubation at 25° C. for 10 min and 37° C. for 120 min using a thermal cycler. Secondly, TaqMan analyses were performed using TaqMan Universal Master mix (Applied Biosystems) and AXIN2 and GAPDH probes (Applied Biosystems) according to the manufacturer's instructions. Briefly, the PCR reaction was prepared by mixing Universal Master mix, TaqMan probes and synthesized cDNA samples. The PCR cycle is as following: 95° C. for 10 min and 40 cycles of tandem incubation at 95° C. for 15 sec and 60° C. for 1 min. mRNA expression levels for the target genes were normalized to GAPDH mRNA levels and data were analyzed using SDS 2.0 software (Applied Biosystems) to calculate relative RNA quantities. Curve fitting was performed using Prism.\nFor GeneCard analysis, 96-well TaqMan array gene card was used according to the manufacturer's instruction. The gene card assays were run on ABI 7900HT Real-Time PCR System (Applied Biosystems) and analyzed with the ΔΔCt method."}, "[3]": {"tested_on": "HN30 tumors", "test": "Mouse subcutaneous xenograft model of HNSCC HN30, anti-tumor activity", "type": "in vivo", "method": "(§2) Nude mice bearing HN30 tumors were randomized according to tumor volume. […] Body weight was monitored daily and tumor sizes were assessed three times a week once tumors were palpable. Tumor sizes were determined by using caliper measurements. Tumor volumes were calculated with a formula (Length×Width×Height)/2. […] Blood sample (50 μL) was collected by serial retroorbital sampling at 1, 3, 7, 16 and 24 hours post-dose. The blood samples were centrifuged and plasma separated and frozen until analysis by LC/MS/MS.\nChanges in tumor weight for each treated (T) and control (C) groups were measured and used to calculate growth delay as expressed by the T/C ratio. […] A similar result was obtained when dosed twice a day in this model with −44% T/C at a dose of 0.5 mg/kg twice a day."}, "[4]": {"tested_on": "Wnt3A secretion", "test": "HA-Wnt3A secretion in transfected 293A cells", "type": "cell-based", "conditions": "293A cells transfected with HA-Wnt3A, various doses; lysate HA-Wnt3A spared", "description": "as §1"}, "[5]": {"tested_on": "SNU1076 xenograft", "test": "SNU1076 xenograft model in mice", "type": "in vivo, mouse", "conditions": "5 mg/kg", "description": "DTX3L (Deltex 3-like, also called BBAP, B-lymphoma- and BAL-associated protein) heterozygous nonsense mutation was identified in the HNSCC cell line SNU1076. DTX3L is an E3 ubiquitin ligase. Its cellular function in the mammalian Notch pathway is not clear, but its Drosophila homologue Deltex is a positive regulator of Notch signaling in Drosophila. […] Loss of DTX3L may provide an alternative mechanism to inactivate the Notch signaling pathway with subsequent activation of Wnt signaling."}, "[6]": {"tested_on": "Wnt signaling", "test": "Wnt co-culture reporter gene assay (TM3 Wnt-Luc cells with L-cell Wnt3A cells)", "type": "cell-based, mouse", "experimental": "Reporter gene assay: Mouse Leydig cell TM3 cells (obtained from American Type Culture Collection, ATCC, Manassas, Va.) are cultured in 1:1 mixture of Ham's F12 medium and Dulbecco's modified Eagle's medium (Gibco/Invitrogen, Carlsbad, Calif.) supplemented with 2.5% FBS (Gibco/Invitrogen, Carlsbad, Calif.) and 5% horse serum (Gibco/Invitrogen, Carlsbad, Calif.), 50 unit/mL penicillin and 50 μg/mL of streptomycin (Gibco/Invitrogen, Carlsbad, Calif.) at 37° C. with 5% CO2 in air atmosphere. TM3 cells in a 10 cm dish are co-transfected with 8 μg of STF-reporter plasmid containing a luciferase gene driven by Wnt-responsive elements and 2 μg of pcDNA3.1-Neo (Gibco/Invitrogen, Carlsbad, Calif.) with 30 μL of FuGENE6 (Roche Diagnostics, Indianapolis, Ind.) following the manufacturer's protocol. Stable cell lines (TM3 Wnt-Luc) were selected with 400 μg/mL of G418 (Gibco/Invitrogen, Carlsbad, Calif.). […]"}, "[7]": {"tested_on": "Wnt1, 2, 3, 3A, 6, 7A, and 9A", "test": "Wnt dependent STF reporter assays with a set of canonical Wnts", "type": "cell-based", "description": "as §1"}, "[8]": {"test": "Plasma concentrations in tumor bearing nude mice", "type": "in vivo, mouse", "conditions": "single dose 3 mg/kg", "method": "as §2"}, "[9]": {"tested_on": "HN30 cells", "test": "HN30 colony formation assay", "type": "cell-based, human", "conditions": "in vitro, crystal violet one week later", "method": "In order to correlate the pathway inhibition with cellular function, the human HNSCC cell line HN30 was used for further in vitro and in vivo characterization. For colony formation assay, 2×10^3 cells per well were plated into 6-well cell culture plates with or without compound treatment. Cells were stained with crystal violet one week later."}, "[10]": {"tested_on": "LRP6 phosphorylation", "test": "Wnt dependent phosphorylation of LRP6 in autocrine L-Wnt3A cells", "type": "cell-based, mouse", "description": "as §1"}, "[11]": {"tested_on": "HN30 cells", "test": "Wnt-dependent AXIN2 message production in HN30 (TaqMan)", "type": "cell-based", "conditions": "Homo sapiens; HN30, 48 hours", "method": "(§3) To identify human cancer cell lines that respond to porcupine inhibition, we profiled over 300 cell lines using the mRNA expression level of AXIN2 as readout. All cell lines were cultured in a humidified incubator at 37° C. with 5% CO2. HN30 cells (Wayne State University) and UMSCC cells (University of Michigan) are derived from human head neck squamous cell carcinoma (HNSCC) patient tumor samples. Total RNA or DNA was isolated using the Qiagen RNeasy and DNeasy blood and tissue kit, according to the manufacturer's instruction, respectively. Briefly, cells were disrupted by adding Buffer RLT and homogenized using QlAshredder spin columns. After one volume of 70% ethanol was added to the homogenized lysate and thoroughly mixed, the samples were transferred to RNeasy spin column. The flow-through was discarded after centrifuge. […]\n(§4) For this a two-Step TaqMan RT-PCR analysis was performed on a PTC-200 peltier thermal cycler (MJ Research) and an ABI PRISM 7900HT Sequence Detection system (Applied Biosystems). […] The PCR cycle is as following: 95° C. for 10 min and 40 cycles of tandem incubation at 95° C. for 15 sec and 60° C. for 1 min. mRNA expression levels for the target genes were normalized to GAPDH mRNA levels and data were analyzed using SDS 2.0 software (Applied Biosystems) to calculate relative RNA quantities. […]"}, "[12]": {"tested_on": "HNSCC cell lines", "test": "Cancer cell line profiling with AXIN2 mRNA expression as readout (TaqMan)", "type": "cell-based, human", "method": "as §3, §4"}}, "data": [{"smiles": "Cc1cc(-c2ncc(CC(=O)Nc3ccc(-c4cnccn4)cn3)cc2C)ccn1", "note": "[COMPOUND A, 2-[5-methyl-6-(2-methylpyridin-4-yl)pyridin-3-yl]-N-[5-(pyrazin-2-yl)pyridin-2-yl]acetamide]", "values": [{"measurement": "cytotoxicity in cells", "setting": "[1]", "value": "no major cytotoxicity"}, {"measurement": "time of maximum effect on pLRP6", "setting": "[2]; HN30 tumors", "value": "7-10 hours post dose"}, {"measurement": "downregulation for LEF1", "setting": "[2]; HN30 xenograft", "value": 84, "unit": "%"}, {"measurement": "downregulation for NKD1", "setting": "[2]; HN30 xenograft", "value": 67, "unit": "%"}, {"measurement": "time of maximum AXIN2 mRNA inhibition", "setting": "[2]; single dose 3 mg/kg", "value": 10, "unit": "h"}, {"measurement": "reduction of AXIN2 mRNA expression in tumors", "setting": "[2]; single dose 3 mg/kg, between 5 and 10 hours post dose", "value": "60-95%"}, {"measurement": "pLRP6 levels in the HN30 tumors", "setting": "[2]; time dependent, largely back to normal by 24 hours", "value": "substantially reduced"}, {"measurement": "T/C", "setting": "[3]; 0.1 mg/kg once a day, oral gavage, 14 days", "value": 69, "unit": "%"}, {"measurement": "T/C", "setting": "[3]; 0.3 mg/kg once a day, oral gavage, 14 days", "value": 26, "unit": "%"}, {"measurement": "T/C", "setting": "[3]; 0.5 mg/kg twice a day", "value": "−44", "unit": "%"}, {"measurement": "T/C", "setting": "[3]; 1.0 mg/kg once a day, oral gavage, 14 days", "value": "−31", "unit": "%"}, {"measurement": "T/C", "setting": "[3]; 3.0 mg/kg once a day, oral gavage, 14 days", "value": "−50", "unit": "%"}, {"measurement": "animal body weight loss", "setting": "[3]; 0.1-3.0 mg/kg once a day, 14 days", "value": "no significant animal body weight loss"}, {"measurement": "abundance of HA-Wnt3A in the supernatant", "setting": "[4]", "value": "potently attenuated"}, {"measurement": "T/C", "setting": "[5]; 14 days of treatment", "value": 25, "unit": "%"}, {"measurement": "reduction of AXIN2", "setting": "[5]; SNU1076 xenograft", "value": 70, "unit": "%"}, {"measurement": "IC50", "setting": "[6]; Mus musculus, luciferase reporter, 24 hours, read-out: IC50 of Wnt signaling inhibition in Wnt co-culture assay", "value": 0.4, "unit": "nM"}, {"measurement": "inhibitory effect after addition of exogenous Wnt3A conditioned medium", "setting": "[6]; Wnt co-culture assay", "value": "rescued"}, {"measurement": "inhibitory activities against canonical Wnts in STF reporter assays", "setting": "[7]", "value": "comparable inhibitory activities against all tested Wnts"}, {"measurement": "time of peak drug concentration", "setting": "[8]", "value": 1, "unit": "h"}, {"measurement": "HN30 colony formation", "setting": "[9]", "value": "strongly attenuated"}, {"measurement": "Wnt dependent phosphorylation of LRP6", "setting": "[10]", "value": "strongly blocked"}, {"measurement": "IC50", "setting": "[11]", "value": 0.3, "unit": "nM"}, {"measurement": "cell lines harbouring HRAS mutations that responded", "setting": "[12]; head and neck cancer cell lines", "value": "4 of 5"}, {"measurement": "HNSCC cell lines showing pathway inhibition", "setting": "[12]; responsive = greater than 50% AXIN2 mRNA reduction after 10-100 nM for 48 hours", "value": "31 out of 96"}]}]}
